Measurements taken from ChEMBL document CHEMBL1201862, “PubChem BioAssay data set” (2004).
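Protocol summary: plate cells (96-well), add compound at 5 concentrations, incubate 48 h, interpolate endpoints linearly. Here, GI50 denotes the concentration required for 50% inhibition of growth.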 Calls of active or inactive are those of the source. Cut-off read from the data, not from the text of the source: active = GI50 up to about 1.1 µM and inactive = higher.

Experiments:
Assay in all cases: NCI-60 cell line screen, 48 h
786-0 = system: 786-0
A498 = system: A498
A549 = system: A549
ACHN = system: ACHN
BT-549 = system: BT-549
CAKI-1 = system: CAKI-1
CCRF-CEM = system: CCRF-CEM
COLO 205 = system: COLO 205
DU-145 = system: DU-145
EKVX = system: EKVX
HCC 2998 = system: HCC 2998
HCT-116 = system: HCT-116
HCT-15 = system: HCT-15
HL-60 = system: HL-60
HOP-62 = system: HOP-62
HOP-92 = system: HOP-92
HT-29 = system: HT-29
Hs-578T = system: Hs-578T
IGROV-1 = system: IGROV-1
K562 = system: K562
KM12 = system: KM12
LOX IMVI = system: LOX IMVI
M14 = system: M14
MCF7 = system: MCF7
MDA-MB-231 = system: MDA-MB-231
MDA-MB-435 = system: MDA-MB-435
MDA-N = system: MDA-N
MOLT-4 = system: MOLT-4
Malme-3M = system: Malme-3M
NCI-H226 = system: NCI-H226
NCI-H23 = system: NCI-H23
NCI-H460 = system: NCI-H460
NCI-H522 = system: NCI-H522
NCI/ADR-RES = system: NCI/ADR-RES
OVCAR-3 = system: OVCAR-3
OVCAR-4 = system: OVCAR-4
OVCAR-5 = system: OVCAR-5
OVCAR-8 = system: OVCAR-8
PC-3 = system: PC-3
RPMI-8226 = system: RPMI-8226
RXF 393 = system: RXF 393
SF-268 = system: SF-268
SF-295 = system: SF-295
SF-539 = system: SF-539
SK-MEL-28 = system: SK-MEL-28
SK-MEL-2 = system: SK-MEL-2
SK-MEL-5 = system: SK-MEL-5
SK-OV-3 = system: SK-OV-3
SN12C = system: SN12C
SNB-19 = system: SNB-19
SNB-75 = system: SNB-75
SR = system: SR
SW-620 = system: SW-620
T47D = system: T47D
TK-10 = system: TK-10
U-251 = system: U-251
UACC-257 = system: UACC-257
UACC-62 = system: UACC-62
UO-31 = system: UO-31
DLD-1 = system: DLD-1
DMS-114 = system: DMS-114
DMS-273 = system: DMS-273
KM-20L2 = system: KM-20L2
LXFL 529 = system: LXFL 529
M19-MEL = system: M19-MEL

`Clc1ccc(-c2nnc(-c3cccc4ccccc34)o2)cc1Cl` was tested, and the GI50 (786-0) was > 100 µM (inactive), the GI50 (A498) was > 100 µM (inactive) and the GI50 (A549) was > 100 µM (inactive). The GI50 (ACHN) was > 100 µM (inactive), the GI50 (BT-549) was > 100 µM (inactive) and the GI50 (CAKI-1) was > 100 µM (inactive). The GI50 (CCRF-CEM) was > 100 µM (inactive), the GI50 (COLO 205) was > 100 µM (inactive) and the GI50 (DU-145) was > 100 µM (inactive). The GI50 (EKVX) was > 100 µM (inactive), the GI50 (HCC 2998) was > 100 µM (inactive) and the GI50 (HCT-116) was > 100 µM (inactive). For the same compound, the GI50 (HCT-15) was over 100 µM, the GI50 (HL-60) was 1.03 µM (active) and the GI50 (HOP-62) was > 100 µM (inactive). For the same compound, the GI50 (HOP-92) was 17.6 µM (inactive), the GI50 (HT-29) was > 100 µM (inactive) and the GI50 (Hs-578T) was > 100 µM (inactive). For the same compound, the GI50 (IGROV-1) was 4.93 µM (inactive), the GI50 (K562) was > 100 µM (inactive) and the GI50 (KM12) was > 100 µM (inactive). The GI50 (LOX IMVI) was > 100 µM (inactive), the GI50 (M14) was > 100 µM (inactive) and the GI50 (MCF7) was > 100 µM (inactive). The GI50 (MDA-MB-231) was > 100 µM (inactive), the GI50 (MDA-MB-435) was > 100 µM (inactive) and the GI50 (MDA-N) was > 100 µM (inactive). For the same compound, the GI50 (MOLT-4) was 59.7 µM (inactive), the GI50 (Malme-3M) was > 100 µM (inactive) and the GI50 (NCI-H226) was > 100 µM (inactive). For the same compound, the GI50 (NCI-H23) was > 100 µM (inactive), the GI50 (NCI-H460) was > 100 µM (inactive) and the GI50 (NCI-H522) was > 100 µM (inactive). The GI50 (NCI/ADR-RES) was > 100 µM (inactive), the GI50 (OVCAR-3) was > 100 µM (inactive) and the GI50 (OVCAR-4) was 98.4 µM (inactive). For the same compound, the GI50 (OVCAR-5) was > 100 µM (inactive), the GI50 (OVCAR-8) was > 100 µM (inactive) and the GI50 (PC-3) was > 100 µM (inactive). For the same compound, the GI50 (RPMI-8226) was > 100 µM (inactive), the GI50 (RXF 393) was > 100 µM (inactive) and the GI50 (SF-268) was > 100 µM (inactive). The GI50 (SF-295) was > 100 µM (inactive), the GI50 (SF-539) was > 100 µM (inactive) and the GI50 (SK-MEL-28) was > 100 µM (inactive). The GI50 (SK-MEL-2) was > 100 µM (inactive), the GI50 (SK-MEL-5) was > 100 µM (inactive) and the GI50 (SK-OV-3) was > 100 µM (inactive). The GI50 (SN12C) was > 100 µM (inactive), the GI50 (SNB-19) was > 100 µM (inactive) and the GI50 (SNB-75) was > 100 µM (inactive). The GI50 (SR) was 40.3 µM (inactive), the GI50 (SW-620) was > 100 µM (inactive) and the GI50 (T47D) was > 100 µM (inactive). For the same compound, the GI50 (TK-10) was > 100 µM (inactive), the GI50 (U-251) was > 100 µM (inactive) and the GI50 (UACC-257) was > 100 µM (inactive). For the same compound, the GI50 (UACC-62) was > 100 µM (inactive) and the GI50 (UO-31) was > 100 µM (inactive).

In the case of `CCN(CC)C1Oc2cc3c(cc2C(c2cc(OC)c(OC)c(OC)c2)C1C)OCO3` (stereo not given), the GI50 (786-0) is reported as 1.33 µM (inactive), the GI50 (A498) is reported as 1.59 µM (inactive) and the GI50 (A549) is reported as 1.55 µM (inactive). For the same compound, the GI50 (ACHN) was 2.14 µM (inactive), the GI50 (BT-549) was 7.1 µM (inactive) and the GI50 (CAKI-1) was 1.85 µM (inactive). For the same compound, the GI50 (CCRF-CEM) was 0.406 µM (active), the GI50 (COLO 205) was 0.875 µM (active) and the GI50 (DU-145) was 1.77 µM (inactive). For the same compound, the GI50 (EKVX) was 10.4 µM (inactive), the GI50 (HCC 2998) was 0.809 µM (active) and the GI50 (HCT-116) was 0.465 µM (active). The GI50 (HCT-15) was 0.518 µM, the GI50 (HL-60) was 0.242 µM (active) and the GI50 (HOP-62) was 0.471 µM (active). The GI50 (HOP-92) was 0.676 µM (active), the GI50 (HT-29) was 0.603 µM (active) and the GI50 (Hs-578T) was 0.759 µM (active). The GI50 (IGROV-1) was 1.52 µM (inactive), the GI50 (K562) was 0.308 µM (active) and the GI50 (KM12) was 0.53 µM (active). For the same compound, the GI50 (LOX IMVI) was 0.762 µM (active), the GI50 (M14) was 0.64 µM (active) and the GI50 (MCF7) was 0.435 µM (active). For the same compound, the GI50 (MDA-MB-231) was 3.15 µM (inactive), the GI50 (MDA-MB-435) was 0.113 µM (active) and the GI50 (MDA-N) was 0.0836 µM (active). The GI50 (MOLT-4) was 0.871 µM (active), the GI50 (Malme-3M) was 0.748 µM (active) and the GI50 (NCI-H226) was 0.875 µM (active). The GI50 (NCI-H23) was 1.53 µM (inactive), the GI50 (NCI-H460) was 0.944 µM (active) and the GI50 (NCI-H522) was 0.344 µM (active). For the same compound, the GI50 (NCI/ADR-RES) was 0.219 µM (active), the GI50 (OVCAR-3) was 0.387 µM (active) and the GI50 (OVCAR-4) was 16.1 µM (inactive). The GI50 (OVCAR-5) was 2 µM (inactive), the GI50 (OVCAR-8) was 1.39 µM (inactive) and the GI50 (PC-3) was 0.979 µM (active). The GI50 (RPMI-8226) was 0.927 µM (active), the GI50 (RXF 393) was 0.839 µM (active) and the GI50 (SF-268) was 3.61 µM (inactive). For the same compound, the GI50 (SF-295) was 0.441 µM (active), the GI50 (SF-539) was 0.457 µM (active) and the GI50 (SK-MEL-28) was 0.719 µM (active). For the same compound, the GI50 (SK-MEL-2) was 0.887 µM (active), the GI50 (SK-MEL-5) was 0.408 µM (active) and the GI50 (SK-OV-3) was 1.1 µM (active). For the same compound, the GI50 (SN12C) was 1.52 µM (inactive), the GI50 (SNB-19) was 1.29 µM (inactive) and the GI50 (SNB-75) was 4.25 µM (inactive). For the same compound, the GI50 (SR) was 0.256 µM (active), the GI50 (SW-620) was 0.531 µM (active) and the GI50 (T47D) was 9.35 µM (inactive). For the same compound, the GI50 (TK-10) was 26.5 µM (inactive), the GI50 (U-251) was 0.6 µM (active) and the GI50 (UACC-257) was 2.88 µM (inactive). The GI50 (UACC-62) was 1.06 µM (active) and the GI50 (UO-31) was 2.56 µM (inactive).

In the case of `COc1ccc(-c2c3ccccc3c(-c3ccc(OCCCCCBr)cc3)c3ccccc23)cc1`, the GI50 (A549) is reported as > 100 µM (inactive), the GI50 (ACHN) is reported as > 100 µM (inactive) and the GI50 (CAKI-1) is reported as > 100 µM (inactive). The GI50 (CCRF-CEM) was > 100 µM (inactive), the GI50 (COLO 205) was > 100 µM (inactive) and the GI50 (DLD-1) was > 100 µM (inactive). The GI50 (DMS-114) was > 100 µM (inactive), the GI50 (DMS-273) was > 100 µM (inactive) and the GI50 (EKVX) was > 100 µM (inactive). For the same compound, the GI50 (HCC 2998) was > 100 µM (inactive), the GI50 (HCT-116) was > 100 µM (inactive) and the GI50 (HCT-15) was over 100 µM. For the same compound, the GI50 (HL-60) was > 100 µM (inactive), the GI50 (HOP-62) was > 100 µM (inactive) and the GI50 (HOP-92) was > 100 µM (inactive). For the same compound, the GI50 (HT-29) was > 100 µM (inactive), the GI50 (IGROV-1) was > 100 µM (inactive) and the GI50 (K562) was > 100 µM (inactive). For the same compound, the GI50 (KM-20L2) was > 100 µM (inactive), the GI50 (KM12) was > 100 µM (inactive) and the GI50 (LOX IMVI) was > 100 µM (inactive). The GI50 (LXFL 529) was > 100 µM (inactive), the GI50 (M14) was > 100 µM (inactive) and the GI50 (M19-MEL) was > 100 µM (inactive). The GI50 (MOLT-4) was > 100 µM (inactive), the GI50 (Malme-3M) was > 100 µM (inactive) and the GI50 (NCI-H226) was > 100 µM (inactive). The GI50 (NCI-H460) was > 100 µM (inactive), the GI50 (NCI-H522) was > 100 µM (inactive) and the GI50 (OVCAR-3) was > 100 µM (inactive). For the same compound, the GI50 (OVCAR-4) was > 100 µM (inactive), the GI50 (OVCAR-5) was > 100 µM (inactive) and the GI50 (OVCAR-8) was > 100 µM (inactive). The GI50 (RPMI-8226) was > 100 µM (inactive), the GI50 (SF-268) was > 100 µM (inactive) and the GI50 (SF-295) was > 100 µM (inactive). For the same compound, the GI50 (SF-539) was > 100 µM (inactive), the GI50 (SK-MEL-28) was > 100 µM (inactive) and the GI50 (SK-MEL-2) was > 100 µM (inactive). The GI50 (SK-OV-3) was > 100 µM (inactive), the GI50 (SN12C) was > 100 µM (inactive) and the GI50 (SNB-19) was > 100 µM (inactive). For the same compound, the GI50 (SR) was > 100 µM (inactive), the GI50 (SW-620) was > 100 µM (inactive) and the GI50 (TK-10) was > 100 µM (inactive). The GI50 (UACC-62) was > 100 µM (inactive) and the GI50 (UO-31) was > 100 µM (inactive).
